According to US7172772B2, “Herbal composition for gastrointestinal disorders” (Council of Scientific & Industrial Research, priority 2003, dated 2007):
“And” between values parts separate entries of the source, which are not always exact repeats. Equal values may be shown once. Where a name gives a salt, the structure may show the parent alone. Marks after values point to notes of the source that are not given here.

Key:
[1] = system: castor oil-stimulated gastrointestinal transit in rats; test: Small intestinal transit, charcoal meal (Table 3); format: in vivo; conditions: 0.1 mg kg^−1 IP
Method: Animals were divided into four groups of six rats each and each animal was given orally 1 ml of charcoal meal (5% activated charcoal suspended in 1% CMC) 60 min after an oral dose of drugs or vehicle. Group I was administered with 1% CMC (10 ml kg^−1) and animals in the other groups received various formulations. Another group received atropine sulfate (0.1 mg kg^−1, IP) as standard drug. After 30 min animals were killed by cervical dislocation and the intestine was removed without stretching and placed lengthwise on moist filter paper. The length of the intestine (pyloric sphincter to caecum) and the distance travelled by the charcoal as a percentage of that length were evaluated for each animal, and group means were compared and expressed as percentage inhibition (Lutterodt, J. Ethnopharmacol. 25, 1989, 235–247). […] Therefore the dose dependent effect of the formulation was similar to the synthetic drug atropine. But long use of atropine completely blocks the secretions it is an adverse effect.

[2] = system: human carcinoma cells of the naso-pharynx; conditions: cell culture; cited from earlier work
[3] = system: castor oil induced diarrhea in rats; test: Castor oil induced diarrhea / defecation, total faecal matter over 4 h (Table 1); format: in vivo; conditions: 5.0 mg kg^−1 p.o.
Method: Groups of six mice each were placed individually in separate cages with filter papers at the bottom. Different doses of the extracts were administered orally to different groups. The non-specific antidiarrhoeal reference drug diphenoxylate HCl (5.0 mg kg^−1, p.o.) and 1% CMC ([…], p.o.) were administered to two groups and later served as controls (Melo et al, J. Pharm. Pharmacol. 40 (1988), […]). The total number of the faecal matter in each group was assessed every hour for the next 4 h. Percent reduction in the total number of faeces in the treated groups was obtained by comparison with control animals.
The method of Awouters et al. (J. Pharm. Pharmacol, 30, 1978, 41–45) as modified by Nwodo and Alumanah (J. Ethnopharmacol, 31, 1991, 395–398) was used. Briefly, rats fasted for 24 h were randomly allocated to five groups of six animals each. One group received 1% CMC (10 mL kg^−1, p.o.), other groups received orally the different dosage of drug extract. Another group given diphenoxylate HCl (5.0 mg kg^−1, p.o.) as suspension. After 60 min each animal was given with 2 ml of castor oil by orogastric cannula, and placed in a separate cage and observed for 4 h defecation. Transparent plastic dishes were placed beneath each cage and the characteristic diarrhoeal droppings were noted. The total number of the faecal matter in each group was assessed every hour for the next 4 h. […]

[4] = system: indomethacin induced acute gastric ulcers in rats; test: Indomethacin induced acute gastric ulcers (Table 4); format: in vivo; conditions: 50 mg/kg
Method: To assess the efficacy of different formulations against the indomethacin induced gastric ulcer different doses (25–100 mg kg^−1, p.o.) of formulations were administered to groups of 10 mice for each dose, while one group of the same number of mice served as control and the
The results of Table 4 represents that there is a significant and dose dependent anti ulcer activity and percentage ratio ranges of protection from 27.03 to 75.38.

[5] = system: cysteamine induced duodenal ulcers in rats; test: Cysteamine induced duodenal ulcers (Table 5); format: in vivo; conditions: 50 mg/kg
From the text: The efficacy is compared with the known standard synthetic drug Ranitidine for treatment of. […] Where as the formulation F5 contains […]. indica, Cinamommum sp. and Buchanania lanzan.

With CN1[C@@H]2CC[C@H]1CC(OC(=O)C(CO)c1ccccc1)C2.CN1[C@@H]2CC[C@H]1CC(OC(=O)C(CO)c1ccccc1)C2.O=S(=O)(O)O (some centres unmarked) [Atropine sulphate, atropine sulfate] the “Mean distance travelled by charcoal” value [1] was 26.5 ± 2.6^b cm and the “Reduction (%)” value [1] was 68.33%.
For COc1cc2c3c(O)c1OCc1ccc(cc1)C[C@@H]1c4c(cc(OC)c(OC)c4Oc4ccc(cc4)CC3=NCC2)CCN1C [Cissampareine], the “inhibitory activity against human carcinoma cells of the naso-pharynx” value [2] is listed as “significant and reproducible inhibitory activity”.
With CCOC(=O)C1(c2ccccc2)CCN(CCC(C#N)(c2ccccc2)c2ccccc2)CC1 [Diphenoxylate HCl, diphenoxylate HCl] the “Total no of faecal matter” value ([3]; counted over 4 h, six rats per group) was 16 and the “% Reduction (Inhibition)” value ([3]; vs control 1% CMC) was 75.38%.
For CNC(=C[N+](=O)[O-])NCCSCc1ccc(CN(C)C)o1 [Ranitidine], the “% Curative ratio” value [4] was 82.20%, the Ulcer index [4] was 0.81 ± 0.01^b and the “% Protection” value [5] was 77% and 77.9%. The Ulcer incidence % [5] was 20%, the “Ulcer incidence No” value [5] was 2/10 and the “Ulcer score Total lesion area” value [5] was 1.06 ± 0.17^c mm^2.
